Read-outs that look alike come from different tables or passages of the source. Where a SMILES comes first, the peptide text is derived from it. [ ]: non-standard residue; d: D form. The star is where a group is joined. Hexanoyl = CCCCCC(=O)*; Ahx = NCCCCCC(=O)O

For experiment [1], the system named is Rat primary cortical neuron cultures. The experiment is classed as cell-based. To be noted: for Significance of neuroprotection vs 1 uM LPS: 24 h LPS.
The test system of experiment [2] is Rat hippocampal neurons. Kind of experiment: Neurite outgrowth assay. The experiment is classed as cell-based.
Experiment [3] has as its system THP1-differentiated macrophages. The experiment is classed as cell-based, human. The following applies: for Significant reduction in IL-1β / Significant reduction in IL-6 / Significant reduction in TNF-α: 24 hrs LPS. Also on record: key to Significant reduction in IL-6 / Significant reduction in TNF-α / Significant reduction in IL-1β: NS: indicates a non-significant reduction in the indicated cytokine; +: indicates a p value<0.05 in Tukey post test; ++: indicates a p value<0.01 in Tukey post test.

Experiment [4] deals with LPS-induced cognitive deficit in CD-1 mice. Kind of experiment: Rodent LPS model of brain inflammation, T-maze spontaneous alternation. The experiment is classed as in vivo, mouse. To be noted: for Recovery (%) / Spontaneous alternation (%) Mean: LPS 250 μg/kg.
The subject of experiment [5] is pulmonary LPS-stimulated rats. The experiment is described as follows: Immune cell infiltration in BALF, LPS acute pulmonary inflammation. The format is in vivo, rat. To be noted: rat, in vivo.
Experiment [6] deals with pulmonary LPS-stimulated rats. Kind of experiment: Cytokine expression in BALF supernatant (multiplex immunoassay), LPS acute pulmonary inflammation. The experiment is classed as in vivo, rat. The following applies: 3 mg/kg IP.
The subject of experiment [7] is bleomycin-induced pulmonary fibrosis in C57BL/6 mice. Kind of experiment: Bleomycin-induced pulmonary fibrosis. The experiment is classed as in vivo, mouse.
Experiment [8] has as its system Rat hippocampal neurons. The experiment is described as follows: Synaptogenesis assay. The experiment is classed as cell-based.
Setting [9] is: 100 mg/kg po BID, right lung homogenate.

Consider `CCCCCC(=O)N[C@@H](Cc1ccc(O)cc1)C(=O)N[C@H](C(=O)NCCCCCC(N)=O)[C@@H](C)CC` [A19 active metabolite, N-hexanoic-Tyr-Ile-(6)aminohexanoic amide] (Hexanoyl-Tyr-Ile-[Ahx]-NH2), for which the “Significance of neuroprotection vs 1 uM LPS” value in experiment [1] (0.1 nM) is recorded as “+++ (+++ indicates p<0.001)”; in experiment [1] (1 nM), “++ (++ indicates p<0.01)”; in experiment [1] (10 nM) it was “+++ (+++ indicates p<0.001)”; in experiment [1] (100 nM) it was “++ (++ indicates p<0.01)”; in experiment [1] (1 μM), “++ (++ indicates p<0.01)”. In experiment [1] (at at least one dose tested), the “protection of primary neurons from LPS-stimulated inflammatory toxicity” value was “protected primary neurons from LPS-stimulated inflammatory toxicity”. Also, the “neurite length / extension of neurites (in words)” value in the experiment with Rat hippocampal neurons [2] is “promoted the extension of neurites”. The “Significant increase in: Neurite length” value in the experiment with Rat hippocampal neurons [2] (10 nM, Table 3 study) is reported as “++++ (++++ = p < 0.0001)”. The “Significant reduction in IL-1β” value was “NS” in experiment [3] (0.1 nM), “++ (indicates a p value<0.01 in Tukey post test)” in experiment [3] (10 nM) and “+ (indicates a p value<0.05 in Tukey post test)” in experiment [3] (1000 nM). Moreover, the entries for the “Significant reduction in IL-6” value in experiment [3] (0.1 nM), in experiment [3] (10 nM) and in experiment [3] (1000 nM) were “NS”, “+ (indicates a p value<0.05 in Tukey post test)” and “++ (indicates a p value<0.01 in Tukey post test)”, respectively. The “Significant reduction in TNF-α” value was “NS” in experiment [3] (0.1 nM), “+ (indicates a p value<0.05 in Tukey post test)” in experiment [3] (10 nM) and “++ (indicates a p value<0.01 in Tukey post test)” in experiment [3] (1000 nM). Moreover, the “expression of IL-1β (in words)” value in experiment [3] (at at least one tested dose) was “significantly reduced the expression of IL-1β and TNF-α”. Also, in experiment [3] (at at least one tested dose), the “expression of IL-6 (in words)” value is reported as “significantly reduced the expression of IL-6”. In addition, in experiment [3] (at at least one tested dose), the “expression of TNF-α (in words)” value is “significantly reduced the expression of IL-1β and TNF-α”.
For the compound `CC12CC3CC(C)(C1)CC(N)(C3)C2` [Memantine, reference compound], the results for the “Recovery (%)” value in experiment [4] (0.1 mg/kg i.p. 14 days) and in experiment [4] (1 mg/kg i.p. 14 days) were 76% and 38%, respectively. The “Spontaneous alternation (%) Mean” value stood at 63.6% in experiment [4] (0.1 mg/kg i.p. 14 days); 64% in experiment [4] (0.1 mg/kg i.p. 14 days, listed as memantine); 54.3% in experiment [4] (1 mg/kg i.p. 14 days); 54% in experiment [4] (1 mg/kg i.p. 14 days, listed as memantine). Also, the “significance of reversal of LPS-induced cognitive deficit (in words)” value in experiment [4] (T-maze) is reported as “significant at both doses”.
As to `C[C@@H]1C[C@H]2[C@@H]3CCC4=CC(=O)C=C[C@]4(C)[C@@]3(F)[C@@H](O)C[C@]2(C)[C@@]1(O)C(=O)CO` [Dex, Dexamethasone], in experiment [5], the “Neutrophils in BALF, reduction vs disease control” value is “+++ (key: + = >5% reduction in cell count vs disease control; ++ = >25% reduction in cell count vs disease control; +++ = >75% reduction in cell count vs disease control)” and the “Total Leukocytes in BALF, reduction vs disease control” value was “+++ (key: + = >5% reduction in cell count vs disease control; ++ = >25% reduction in cell count vs disease control; +++ = >75% reduction in cell count vs disease control)”. In addition, in experiment [6], the “CCL2, significant change in expression in BALF supernatant” value is reported as “+ (+ = Significant change in cytokine quantification, p < 0.05 by Student's T-test.)”; the “CCL3, significant change in expression in BALF supernatant” value is recorded as “+ (+ = Significant change in cytokine quantification, p < 0.05 by Student's T-test.)”; the “CCL5, significant change in expression in BALF supernatant” value was “+ (+ = Significant change in cytokine quantification, p < 0.05 by Student's T-test.)”; the “CCL11, significant change in expression in BALF supernatant” value is listed as “+ (+ = Significant change in cytokine quantification, p < 0.05 by Student's T-test.)”. Further, in experiment [6], the “CX3CL1, significant change in expression in BALF supernatant” value is listed as “+ (+ = Significant change in cytokine quantification, p < 0.05 by Student's T-test.)”; the “CXCL1, significant change in expression in BALF supernatant” value was “+ (+ = Significant change in cytokine quantification, p < 0.05 by Student's T-test.)”; the “CXCL5, significant change in expression in BALF supernatant” value was “+ (+ = Significant change in cytokine quantification, p < 0.05 by Student's T-test.)”; the “CXCL10, significant change in expression in BALF supernatant” value is “+ (+ = Significant change in cytokine quantification, p < 0.05 by Student's T-test.)”. In addition, in experiment [6], the “EGF, significant change in expression in BALF supernatant” value was “+ (+ = Significant change in cytokine quantification, p < 0.05 by Student's T-test.)”; the “IFN-γ, significant change in expression in BALF supernatant” value was “+ (+ = Significant change in cytokine quantification, p < 0.05 by Student's T-test.)”; the “IL-1α, significant change in expression in BALF supernatant” value is listed as “+ (+ = Significant change in cytokine quantification, p < 0.05 by Student's T-test.)”; the “IL-1β, significant change in expression in BALF supernatant” value is recorded as “+ (+ = Significant change in cytokine quantification, p < 0.05 by Student's T-test.)”. In experiment [6], the “IL-5, significant change in expression in BALF supernatant” value is “+ (+ = Significant change in cytokine quantification, p < 0.05 by Student's T-test.)”; the “IL-6, significant change in expression in BALF supernatant” value is “+ (+ = Significant change in cytokine quantification, p < 0.05 by Student's T-test.)”; the “IL-10, significant change in expression in BALF supernatant” value is listed as “+ (+ = Significant change in cytokine quantification, p < 0.05 by Student's T-test.)”; the “IL-12p70, significant change in expression in BALF supernatant” value was “+ (+ = Significant change in cytokine quantification, p < 0.05 by Student's T-test.)”. Further, in experiment [6], the “IL-13, significant change in expression in BALF supernatant” value is recorded as “+ (+ = Significant change in cytokine quantification, p < 0.05 by Student's T-test.)”; the “IL-17A, significant change in expression in BALF supernatant” value is listed as “+ (+ = Significant change in cytokine quantification, p < 0.05 by Student's T-test.)”; the “TNF-α, significant change in expression in BALF supernatant” value was “+ (+ = Significant change in cytokine quantification, p < 0.05 by Student's T-test.)”.
Take `C[C@]12CCC(=O)C[C@@H]1CC[C@@H]1[C@@H]2CC[C@]2(C)[C@@H](O)CC[C@@H]12` [DHT, alpha-dihydrotestosterone, reference compound]: the “Significant increase in: Neurite length” value in the experiment on Rat hippocampal neurons [2] was “+ (key: NS = not significant; + = p < 0.05; ++++ = p < 0.0001)”.
`Cc1ccc(=O)n(-c2ccccc2)c1` [Pirfenidone, reference compound]: the “Right Lung Weight, improvement versus disease control” value in experiment [7] (100 mg/kg po BID, day 21) is “+ (+ => 5-25% improvement v disease control)”. Moreover, in experiment [7] (setting [9]), the “Collagen, improvement versus disease control” value is “++ (++ => 26-50% improvement v disease control)” and the “TGF-Beta, improvement versus disease control” value is “+++ (+++ => 51-100% improvement v disease control)”. Further, the “protection against bleomycin-induced increases in TGF-β (in words)” value in experiment [7] (all doses, day 21) is “significantly protected against bleomycin-induced increases in TGF-β”. For the same compound, the “protection against body weight loss (in words)” value in experiment [7] (all treatment groups) is listed as “did not protect against body weight loss”.
Consider “HGF: hepatocyte growth factor, used as a positive control at 5 ng/ml”, for which the “neurite length / extension of neurites (in words)” value in the experiment with Rat hippocampal neurons [2] was “increase both neurite length and synapse count”. Further, in the experiment on Rat hippocampal neurons [2] (5 ng/ml, Table 4 study), the “Significant increase in: Neurite length” value was “+++ (+++ = p < 0.0005)”. Moreover, in the experiment with Rat hippocampal neurons [8], the “synapse counts (in words)” value was “increase both neurite length and synapse count”. The “Significant increase in: Synapses” value in the experiment on Rat hippocampal neurons [8] (5 ng/ml, Table 4 study) was “++++ (++++ = p < 0.0001)”.

Values taken from patent publication US20250161308A1, “Methods of Treating Covid-Related Disorders” (priority 2022, published 2025).
